Results published in patent US20220031800A1, “PEPTIDES FOR TREATING NON-EXUDATIVE MACULAR DEGENERATION AND OTHER DISORDERS OF THE EYE” (Allegro Pharmaceuticals, LLC, priority 2019, published 2022).
Square brackets hold non-standard residues; d marks the D form. Peptide text beside a SMILES is read from it. Cya = N[C@@H](CS(=O)(=O)O)C(=O)O

Experiments:
[1] = test system: study eye of subjects with intermediate non-exudative AMD; test: Humphrey visual field assessment (mean deviation, pattern standard deviation); format: in vivo, human
Source text: Twenty-five subjects were assigned to Group 1 and fifteen (15) subjects were assigned to Group 2.

[2] = test system: primary mouse Müller cells; test: Trypan blue viability of primary mouse Müller cells exposed to kainic acid; format: cell-based, CD1 mice; settings: 1.0 mg/mL risuteganib alone
Source text: Purpose: Investigate neuroprotective properties of risuteganib in primary mouse Müller cells exposed to kainic acid, a neuroexcitatory compound that activates glutamate receptors, resulting in overstimulation and cell death. Retinal Müller cells support normal functions of neurons and their dysregulation can leads to loss of homeostasis and neuronal cell death.
Methods: Fresh retina were collected from CD1 mice and then mechanically dissociated with sterile Pasteur pipette into small aggregates and seeded into 35 mm culture dishes. All cultures were first left unchanged for 5-6 days and then replenished every 3-4 days. When the cell growth had reached around 80% confluency, retinal aggregates and debris were removed by media washes to form a purified cell monolayer. Cells were then exposed to the experimental conditions: (1) untreated control, (2) 1.0 mg/mL risuteganib, (3) 500 μM kainic acid (KA), and (4) 1.0 mg/mL risuteganib for 24 hours before 500 μM kainic acid exposure. 48 hours after kainic acid treatment, dead and live cell numbers were measured using Trypan blue exclusion assay on a hemocytometer.

[3] = Week 12, Group 2 (1 mg IVT day 1 + wk 16)
[4] = Week 12, risuteganib group (1 mg IVT day 1 + wk 16)
[5] = Week 12 change, risuteganib group (1 mg IVT day 1 + wk 16)
[6] = Week 32, Group 1 crossover (sham day 1, 1 mg IVT wk 16)
[7] = Week 32, Group 2 (1 mg IVT day 1 + wk 16)
[8] = Week 32, risuteganib group (1 mg IVT day 1 + wk 16)
[9] = Week 32, sham group after crossover to 1 risuteganib injection (wk 16)
[10] = Week 32 change, Group 1 crossover (sham day 1, 1 mg IVT wk 16)
[11] = Week 32 change, Group 2 (1 mg IVT day 1 + wk 16)
[12] = Week 32 change, risuteganib group (1 mg IVT day 1 + wk 16)
[13] = Week 32 change, sham group after crossover to 1 risuteganib injection (wk 16)

## C[C@@H](O)[C@H](NC(=O)[C@H](CS(=O)(=O)O)NC(=O)CNC(=O)[C@H](CCCNC(=N)N)NC(=O)CN)C(=O)N1CCC[C@H]1C(=O)O [risuteganib, Glycyl-L-arginylglycyl-3-sulfo-L-alanyl-L-threonyl-L-proline] (H-GRG[Cya]TP-OH)
[1]; [3]
  Humphrey visual field pattern standard deviation, mean: 3.350 dB
  Humphrey visual field pattern standard deviation, median: 1.630 dB
[1]; [4]
  Humphrey visual field mean deviation, mean: −5.502 dB
  Humphrey visual field mean deviation, median: −3.500 dB
[1]; Week 12 change, Group 2 (1 mg IVT day 1 + wk 16)
  Humphrey visual field pattern standard deviation change, median: −0.090 dB
[1]; [5]
  Humphrey visual field mean deviation change, mean: 0.302 dB
  Humphrey visual field mean deviation change, median: 0.100 dB
[1]; [6]
  Humphrey visual field pattern standard deviation, mean: 2.790 dB
  Humphrey visual field pattern standard deviation, median: 2.410 dB
[1]; [7]
  Humphrey visual field pattern standard deviation, mean: 3.113 dB
  Humphrey visual field pattern standard deviation, median: 2.050 dB
[1]; [8]
  Humphrey visual field mean deviation, mean: −5.211 dB
  Humphrey visual field mean deviation, median: −3.470 dB
[1]; [9]
  Humphrey visual field mean deviation, mean: −4.055 dB
  Humphrey visual field mean deviation, median: −2.260 dB
[1]; [10]
  Humphrey visual field pattern standard deviation change, mean: 0.469 dB
  Humphrey visual field pattern standard deviation change, median: 0.360 dB
[1]; [11]
  Humphrey visual field pattern standard deviation change, mean: 0.115 dB
  Humphrey visual field pattern standard deviation change, median: 0.045 dB
[1]; [12]
  Humphrey visual field mean deviation change, mean: 0.191 dB
  Humphrey visual field mean deviation change, median: −0.040 dB
[1]; [13]
  Humphrey visual field mean deviation change, mean: 0.158 dB
  Humphrey visual field mean deviation change, median: −0.070 dB
[2]
  Change in cell viability, treatment alone: did not induce detectable change in cell viability
